# From PubChem BioAssay AID2078 (The Scripps Research Institute Molecular Screening Center, 2009)
# System: Cytotoxicity
# Experiment: STAT3 inhibitors, late-stage profile, late-stage follow-up, cell-based, STAT1 panel, qPCR, cytotoxicity (AID 2078)
# Conditions: STAT3/STAT1 inhibition panel, cell reporter assay
structure (smiles),measurement,value
c1ccc(CC2CCN(c3ncnc4sccc34)CC2)cc1,CC50,> 55.7 µM
